These results are taken from patent publication US20170260285A1, “METHODS FOR TREATING CANCER” (UNIVERSITY OF IOWA RESEARCH FOUNDATION, priority 2014, published 2017).

Entries after “also recorded” stand apart in the source; their conditions may differ.

One data set deals with HNSCC tumor cell lines. Particulars: previous studies (ref. 10); cited from earlier work.
In data set [1] the test system is Cal-27 HNSCC cells. Kind of data set: IL-6 secretion by ELISA in Cal-27 cells. The class given is cell-based, human. The following applies: for baseline IL-6 (absence of erlotinib): agent 2 h (1 h for caspase inhibitors, NAC, CAT) then DMSO 48 h; for erlotinib-induced IL-6: agent pre-treatment then erlotinib 5 μM 48 h.
Excerpt: (§1) Cal-27 and FaDu human head and neck squamous carcinoma (HNSCC) cells were obtained from the American Type Culture Collection (ATCC, Manassas, Va.). SQ20B HNSCC cells (16) were a gift from Dr. Anjali Gupta (Department of Radiation Oncology, The University of Iowa). All HNSCC cell lines are EGFR positive and are sensitive to EGFR inhibitors. All cell lines were authenticated by the ATCC for viability (before freezing and after thawing), growth, morphology and isoenzymology. Cells were stored according to the supplier's instructions and used over a course of no more than 3 months after resuscitation of frozen aliquots. Cultures were maintained in 5% CO2 and air humidified in a 37° C. incubator.
(§2) Erlotinib (ERL; Tarceva) and anakinra (ANA; Kineret) were obtained from the inpatient pharmacy at the University of Iowa Hospitals and Clinics. Drugs were added to cells at final concentrations of 5 μM ERL and 10 ng/mL or 50 ng/mL ANA. Human IgG and […] (DMSO) were used as controls and were obtained from Sigma Aldrich. Human IL-1α, IL-1β, and IL-18Rα neutralizing antibodies were obtained from R&D Systems and were used at a concentration of 0.5 μg/mL. Recombinant human IL-1α was obtained from Life Technologies and administered at a concentration of 1 ng/mL. Ac-Y-VAD-cho, a caspase-1 inhibitor (CalBioChem), was suspended in DMSO and added at a concentration of […], a pan-caspase inhibitor (Promega) was diluted in DMSO and added at a concentration of 20 μM. TLR agonists were used at the following concentrations: Pam3CSK4 (200ng/mL), FSL-1 (100 ng/mL), Poly I:C (20 μg/mL), LPS (200 ng/mL), Flagellin (200 ng/mL), Gardiquimod (1 μg/mL), CL075 (1 μg/mL), and E. coli DNA (1 μg/mL). All TLR agonists were obtained from InvivoGen. The required volume of each drug was added directly to complete cell culture media on cells to achieve the indicated final concentrations.
(§3) Levels of IL-6, IL-1α and IL-1β of treated cells were determined by ELISA. The culture media of the treated cells were harvested and each cytokine was detected according to the manufacturer's protocol using the Human Quantikine ELISA Kits (R&D Systems, Minneapolis, Minn.).
as §1, with “(20)” for “(16)”
(§4) Erlotinib (ERL; Tarceva), anakinra (ANA; Kineret) and N-acetyl cysteine (NAC; Acetadote) were obtained from the inpatient pharmacy at the University of Iowa Hospitals and Clinics. Drugs were added to cells at final concentrations of 5 μM ERL, 10 ng/mL or 50 ng/mL ANA and 20 mM NAC. Human IgG and […] (DMSO) were used as controls and were obtained from Sigma Aldrich. Pegylated catalase (CAT; Sigma Aldrich) was used at a final concentration of 100 U/mL. Human IL-1α, IL-1β, and IL-18Ra neutralizing antibodies were obtained from R&D Systems and were used at a concentration of 0.5 μg/mL. Recombinant human IL-1α was obtained from Life Technologies and administered at a concentration of 1 ng/mL. Ac-Y-VAD-cho (CalBioChem) was suspended in DMSO and used at 5 μM. Z-VAD-fmk (Promega) was diluted in DMSO and used at 20 μM. TLR agonists were used at the following concentrations: Pam3CSK4 (200 ng/mL), FSL-1 (100 ng/mL), Poly I:C (20 μg/mL), LPS (200 ng/mL), Flagellin (200 ng/mL), Gardiquimod (1 μg/mL), CL075 (1 μg/mL), and E. coli DNA (1 μg/mL). All TLR agonists were obtained from InvivoGen. […]

In data set [2] the test system is SQ20B HNSCC cells. Kind of data set: IL-6 secretion by ELISA in SQ20B cells. Particulars: for baseline IL-6 (absence of erlotinib): agent 2 h (1 h for caspase inhibitors, NAC, CAT) then DMSO 48 h; for erlotinib-induced IL-6: agent pre-treatment then erlotinib 5 μM 48 h. The class given is cell-based, human.
Excerpt: as §1, §2, §3
as §1, with “(20)” for “(16)”
as §4

Data set [3] relates to SQ20B HNSCC cells. Put plainly: IL-1α release by ELISA in SQ20B cells. The class given is cell-based, human. The following applies: agent 1 h then erlotinib 5 μM 48 h. The procedure: as §2, §3
(§5) Erlotinib (ERL; Tarceva), anakinra (ANA; Kineret) and N-acetyl cysteine (NAC; Acetadote) were obtained from the inpatient pharmacy at the University of Iowa Hospitals and Clinics. Drugs were added to cells at final concentrations of 5 μM ERL, 10 ng/mL or 50 ng/mL ANA and 20 mM NAC. Human IgG and […] (DMSO) were used as controls and were obtained from Sigma Aldrich. Pegylated catalase (CAT; Sigma Aldrich) was used at a final concentration of 100 U/mL. Human IL-1α, IL-1β, and IL-18Ra neutralizing antibodies were obtained from R&D Systems and were used at a concentration of 0.5 μg/mL. Recombinant human IL-1α was obtained from Life Technologies and administered at a concentration of 1 ng/mL. Ac-Y-VAD-cho (CalBioChem) was suspended in DMSO and used at 5 μM. Z-VAD-fmk (Promega) was diluted in DMSO and used at 20 μM. TLR agonists were used at the following concentrations: Pam3CSK4 (200 ng/mL), FSL-1 (100 ng/mL), Poly I:C (20 μg/mL), LPS (200 ng/mL), Flagellin (200 ng/mL), Gardiquimod (1 μg/mL), CL075 (1 μg/mL), and E. coli DNA (1 μg/mL). All TLR agonists were obtained from InvivoGen. The required volume of each drug was added directly to complete cell culture media on cells to achieve the indicated final concentrations.
(§6) Levels of IL-6, IL-1α and IL-1β of treated cells were determined by ELISA. The culture media of the treated cells were harvested and each cytokine was detected according to the manufacturer's protocol using Human Quantikine ELISA Kits (R&D Systems, Minneapolis, Minn.).

In data set [4] the test system is Cal-27 HNSCC cells. Kind of data set: IL-1α release by ELISA in Cal-27 cells. The class given is cell-based, human. Particulars: for erlotinib-induced IL-1α release: agent 1 h then erlotinib 5 μM 48 h. How it is done: as §2, §3, §5, §6
In the next data set the test system is SQ20B and Cal27 cells. The class given is cell-based. The procedure: To determine whether cell death is responsible for IL-1α release, we used Z-VAD-fmk, a pan-caspase inhibitor, to prevent cell death. We also tested Ac-Y-VAD-cho, caspase-1 inhibitor, to assess inflammasome involvement. After testing various combinations of these inhibitors, we found an optimal concentration of 20 μM Z-VAD and 5μM Y-VAD. […] To confirm that the pan-caspase inhibitor was effectively blocking cell death, we performed a clonogenic assay with erlotinib- and Z-VAD-treated cells in SQ20B cells.

As to panitumumab, in the data set with HNSCC tumor cell lines, the “IL-6 expression/secretion in HNSCC cell lines treated with EGFRIs” value was “significant upregulation”.

On to anakinra, for which the “baseline IL-6 (absence of erlotinib)” value in the data set on Cal-27 HNSCC cells [1] and in the data set with SQ20B HNSCC cells [2] was “significantly reduced” in each case. Besides, the “erlotinib-induced IL-6” value in the data set on Cal-27 HNSCC cells [1] is “significantly reduced; also recorded: effectively blocked”; in the data set on Cal-27 HNSCC cells [1] (listed as Anakinra), “effectively blocked”; in the data set with SQ20B HNSCC cells [2] it was “significantly reduced; also recorded: effectively blocked”; with SQ20B HNSCC cells [2] (listed as Anakinra), “effectively blocked”.

`CC(=O)N[C@@H](CS)C(=O)O` [NAC, N-acetyl cysteine]: the “erlotinib-induced IL-1α release” value with SQ20B HNSCC cells [3] and in the data set on Cal-27 HNSCC cells [4] was “significantly suppressed” each time. The “erlotinib-induced IL-6” value in the data set on Cal-27 HNSCC cells [1] and in the data set on SQ20B HNSCC cells [2] was “significantly suppressed” each time.

Ac-Y-VAD-cho: the “erlotinib-induced IL-1α release” value in the data set with SQ20B HNSCC cells [3] and in the data set on Cal-27 HNSCC cells [4] was “did not see a decrease; also recorded: not observed” in each case. For the same molecule, the “erlotinib-induced IL-6” value in the data set on Cal-27 HNSCC cells [1] and in the data set on SQ20B HNSCC cells [2] was “did not affect” in each case. Also, the “highest dose that did not result in toxicity (optimal concentration)” value in the data set on SQ20B and Cal27 cells is 5 µM. In the data set with Cal-27 HNSCC cells [4] (agent 1 h then DMSO 48 h), the “baseline IL-1α levels” value is on record as “not observed”.

For `CS(=O)(=O)CCNCc1ccc(-c2ccc3ncnc(Nc4ccc(OCc5cccc(F)c5)c(Cl)c4)c3c2)o1` [lapatinib], in the data set on HNSCC tumor cell lines, the “IL-6 expression/secretion in HNSCC cell lines treated with EGFRIs” value was “significant upregulation”.

B1: Exogenous IL-1α: Recombinant human IL-1α from Life Technologies, 1 ng/mL (protein, UniProt P01583 113-271, looked up)
Interleukin-1 alpha: SAPFSFLSNVKYNFMRIIKYEFILNDALNQSIIRANDQYLTAAALHNLDEAVKFDMGAYKSSKDDAKITVILRISKTQLYVTAQDEDQPVLLKEMPEIPKTITGSETNLLFFWETHGTKNYFTSVAHPNLFIATKQDYWVCLAGGPPSITDFQILENQA
B1: in the data set on Cal-27 HNSCC cells [1], the “baseline IL-6 (absence of erlotinib)” value is listed as “increased” and the “erlotinib-induced IL-6” value is listed as “increased”. Besides, in the data set on SQ20B HNSCC cells [2], the “baseline IL-6 (absence of erlotinib)” value is listed as “increased” and the “erlotinib-induced IL-6” value is listed as “increased”.

B2: CAT: Pegylated catalase (Sigma Aldrich), antioxidant, 100 U/mL (protein, UniProt P00432 2-527, looked up)
Catalase: ADNRDPASDQMKHWKEQRAAQKPDVLTTGGGNPVGDKLNSLTVGPRGPLLVQDVVFTDEMAHFDRERIPERVVHAKGAGAFGYFEVTHDITRYSKAKVFEHIGKRTPIAVRFSTVAGESGSADTVRDPRGFAVKFYTEDGNWDLVGNNTPIFFIRDALLFPSFIHSQKRNPQTHLKDPDMVWDFWSLRPESLHQVSFLFSDRGIPDGHRHMNGYGSHTFKLVNANGEAVYCKFHYKTDQGIKNLSVEDAARLAHEDPDYGLRDLFNAIATGNYPSWTLYIQVMTFSEAEIFPFNPFDLTKVWPHGDYPLIPVGKLVLNRNPVNYFAEVEQLAFDPSNMPPGIEPSPDKMLQGRLFAYPDTHRHRLGPNYLQIPVNCPYRARVANYQRDGPMCMMDNQGGAPNYYPNSFSAPEHQPSALEHRTHFSGDVQRFNSANDDNVTQVRTFYLKVLNEEQRKRLCENIAGHLKDAQLFIQKKAVKNFSDVHPEYGSRIQALLDKYNEEKPKNAVHTYVQHGSHLSAREKANL
modifications: PEG
notes: Pegylated catalase (Sigma Aldrich), antioxidant, 100 U/mL
Turning to B2, the “erlotinib-induced IL-1α release” value in the data set with SQ20B HNSCC cells [3] and in the data set on Cal-27 HNSCC cells [4] was “significantly suppressed” in each case. Besides, the “erlotinib-induced IL-6” value with Cal-27 HNSCC cells [1] and in the data set with SQ20B HNSCC cells [2] was “significantly suppressed” each time.
